Like-named read-outs stand apart in the source and are kept apart here.

Five compounds from patent US8486996B2, “Aroylfuranes and aroylthiophenes” (Basilea Pharmaceutica AG, priority 2006, dated 2013) can be followed below.

Assay [1] is described as follows: Hoechst 33342 nuclear staining (48 h read-out). The format is cell-based. A digest of the protocol: (§1)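 Adherent cells pre-spread 24 h before dosing, suspension cells dosed at seeding; compounds at 0.001 μM-10 μM final, 48 h at culture conditions. Hoechst 33342 (2-5 μg/ml) added for 30 min, then fluorescence microscopy scoring of apoptotic nuclear fraction and apoptosis-specific morphology, reported as scores A-D.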

In assay [2] the test system is tumor cells. The experiment in a line: Hoechst 33342 nuclear staining (48 h read-out). The format is cell-based. A digest of the protocol: as §1
Assay [3] in a line: MTS proliferation assay (72 h read-out). The note with it: MRC5 cells. Format: cell-based. A digest of the protocol:
(§2)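 Tumour cells (1.5×10^3–10^4 per well) were seeded 24 h before compound addition, then exposed to 0.001–10 μM final compound for 72 h under culture conditions. MTS reagent was added for a further 3 h, absorbance was read at 492 nm, and results were binned into scores A–D.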
(In general: Tetrazolium assays rely on reduction of a dye to a coloured formazan, in cell work by metabolically active cells.)

Assay [4] concerns tumor cells. The experiment in a line: MTS proliferation assay (72 h read-out). Format: cell-based. The method in brief: as §2
Assay [5] in a line: Mitochondrial membrane potential, JC-1 (read-out 48 h). The note with it: PBL, JC-1, 48 h. The format is cell-based. The method in brief: (§3)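 Tumor cells were treated with test compounds (adherent cells after 24 h of attachment, suspension cells immediately), medium holding up to 5% DMSO. After 48 h, JC-1 (2-5 μg/ml in added medium) was applied for 30 min. Fluorescence microscopy (FITC/TRITC filters) scored the fraction of cells with dissipated mitochondrial membrane potential as categories A-D.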

The test system of assay [6] is tumor cells. Described as above. The format is cell-based. The note with it: JC-1, 48 h. A digest of the protocol: as §3
Assay [7] relates to HeLa. The experiment in a line: Colony Forming Units (read-out 6 days), HeLa. The format is cell-based, human. The note with it: colonies containing more than 30 cells, read-out: Colony Forming Units, score based on IC50, HeLa. Here is the method: (§4) Appropriate numbers of cells (100-150 cells, dependent on the cell type) are being seeded out in 1 ml complete medium into 6-well plates and allowed to attach for 48 h. The compounds are added after 48 h in 500 μl solution. The concentrations are in the range of 0.001 μM-3 μM. Control plates receive the same volume of medium containing the appropriate amount of DMSO. The plates are incubated for 5-7 days at cell culture conditions and subsequently scored for growth of colonies (containing more than 30 cells) by using a microscope.

Assay [8] deals with H460. The experiment in a line: Colony Forming Units (read-out 6 days), H460. The note with it: colonies containing more than 30 cells, read-out: Colony Forming Units, score based on IC50, H460. The format is cell-based, human. The protocol:
as §4

[9] abbreviates: MRC5 cells, read-out: Hoechst 33342 nuclear staining EC50, MRC5.
[10] abbreviates: PBL, read-out: Hoechst 33342 nuclear staining EC50, PBL.
[11] abbreviates: HeLa cells, read-out: Hoechst 33342 nuclear staining EC50, HeLa.
Where [12] appears, read: Jily cells, read-out: Hoechst 33342 nuclear staining EC50, Jily.
[13] abbreviates: Jurkat cells, read-out: Hoechst 33342 nuclear staining EC50, Jurkat.
Where [14] appears, read: HT1080 cells, read-out: MTS proliferation assay IC50, HT1080.
The mark [15] stands for this setting: HeLa cells, read-out: MTS proliferation assay IC50, HeLa.
The mark [16] stands for this setting: Jily cells, read-out: MTS proliferation assay IC50, Jily.
Setting [17] is: HeLa cells, read-out: Mitochondrial membrane potential (read-out 48 h) HeLa.
[18] abbreviates: Jily cells, read-out: Mitochondrial membrane potential (read-out 48 h) Jily.
Where [19] appears, read: Jurkat cells, read-out: Mitochondrial membrane potential (read-out 48 h) Jurkat.
Setting [20] is: MCF7 cells, read-out: Mitochondrial membrane potential (read-out 48 h) MCF7.
[21] abbreviates: Jurkat cells, read-out: MTS proliferation assay IC50, Jurkat.

On to `CCOc1ccccc1C(=O)c1cc2cc(OC)ccc2o1` [Example 53], for which the EC50 was 100 to 1000 nM in assay [1] (setting [9]); greater than 1000 nM in assay [1] (setting [10]); 10 to 100 nM in assay [2] (setting [11]); 10 to 100 nM in assay [2] (setting [12]); less than 10 nM in assay [2] (setting [13]); greater than 1000 nM in assay [5]. The EC50 in assay [6] (setting [17]), in assay [6] (setting [18]), in assay [6] (setting [19]) and in assay [6] (setting [20]) was 10 to 100 nM throughout. Further, the IC50 in assay [3] is less than 10 nM; in assay [4] (setting [14]), less than 10 nM; in assay [4] (setting [15]), less than 10 nM; in assay [4] (setting [16]), less than 10 nM; in assay [7], 10 to 100 nM; in assay [8] it was 10 to 100 nM.
Consider `CCOc1ccc(F)cc1C(=O)c1oc2ccc(OC)cc2c1NC(=O)COC` [Example 58], for which the EC50 in assay [1] (setting [9]) is greater than 1000 nM; in assay [1] (setting [10]), greater than 1000 nM; in assay [2] (setting [11]), 100 to 1000 nM; in assay [2] (setting [12]), 10 to 100 nM; in assay [2] (setting [13]), 10 to 100 nM; in assay [5] it was greater than 1000 nM. Also, the EC50 is 100 to 1000 nM in assay [6] (setting [17]), 10 to 100 nM in assay [6] (setting [18]), 10 to 100 nM in assay [6] (setting [19]) and 100 to 1000 nM in assay [6] (setting [20]). For the same compound, the IC50 is 10 to 100 nM in assay [3]; 10 to 100 nM in assay [4] (setting [14]); 10 to 100 nM in assay [4] (setting [15]); 10 to 100 nM in assay [4] (setting [16]); less than 10 nM in assay [4] (setting [21]); 10 to 100 nM in assay [7]. In addition, the IC50 in assay [8] fell in the range of 10 to 100 nM.
Take `Nc1c(C(=O)c2ccccc2OCC(F)(F)F)oc2ccc(Cl)cc12` [Example 61]: the EC50 is greater than 1000 nM in assay [1] (setting [9]); greater than 1000 nM in assay [1] (setting [10]); 100 to 1000 nM in assay [2] (setting [11]); 10 to 100 nM in assay [2] (setting [12]); less than 10 nM in assay [2] (setting [13]); greater than 1000 nM in assay [5]. In addition, the EC50 in assay [6] (setting [17]) was 100 to 1000 nM; in assay [6] (setting [18]) it was 10 to 100 nM; in assay [6] (setting [19]), 10 to 100 nM; in assay [6] (setting [20]) it was greater than 1000 nM. The IC50 in assay [3] is 10 to 100 nM; in assay [4] (setting [14]) it was 10 to 100 nM; in assay [4] (setting [15]) it was 10 to 100 nM; in assay [4] (setting [16]), less than 10 nM; in assay [4] (setting [21]), less than 10 nM; in assay [7], 10 to 100 nM. Also, in assay [8], the IC50 was in the range of 10 to 100 nM.
For `CCOc1ccc(F)cc1C(=O)c1cc2cc(O)ccc2o1` [Example 64], the EC50 in assay [1] (setting [9]) is 100 to 1000 nM; in assay [1] (setting [10]), greater than 1000 nM; in assay [2] (setting [11]), 10 to 100 nM; in assay [2] (setting [12]) it was 10 to 100 nM; in assay [2] (setting [13]) it was less than 10 nM; in assay [5], greater than 1000 nM. Moreover, the EC50 in assay [6] (setting [17]) is 10 to 100 nM; in assay [6] (setting [18]) it was 10 to 100 nM; in assay [6] (setting [19]), less than 10 nM; in assay [6] (setting [20]), greater than 1000 nM. The IC50 in assay [3] is 10 to 100 nM; in assay [4] (setting [14]), 10 to 100 nM; in assay [4] (setting [15]), 10 to 100 nM; in assay [4] (setting [16]), less than 10 nM; in assay [4] (setting [21]), less than 10 nM; in assay [7] it was 10 to 100 nM. The IC50 in assay [8] is 10 to 100 nM.
With `CCOc1ccc2oc(C(=O)c3cc(F)ccc3OCC)cc2c1` [Example 66], the EC50 in assay [1] (setting [9]) is 100 to 1000 nM; in assay [1] (setting [10]), greater than 1000 nM; in assay [2] (setting [11]), 10 to 100 nM; in assay [2] (setting [12]) it was less than 10 nM; in assay [2] (setting [13]), 10 to 100 nM; in assay [5], greater than 1000 nM. Further, the EC50 lay in the range of 100 to 1000 nM in assay [6] (setting [17]), 10 to 100 nM in assay [6] (setting [18]), 10 to 100 nM in assay [6] (setting [19]) and 100 to 1000 nM in assay [6] (setting [20]). The IC50 in assay [3], in assay [4] (setting [14]), in assay [4] (setting [15]), in assay [4] (setting [16]), in assay [7] and in assay [8] was less than 10 nM in each case.
